Measured values from US10106762B2, “Treating a textile garment with a hydrophobic dye solution” (Henkel IP & Holding GmbH, priority 2004, dated 2018).

Columns and labels:
LogP of dye = type: physicochemical
[1] = Optical density of dye solution; type: physicochemical; conditions: 200 ppb solution in water at 10 cm; extrapolated from measurement in ethanol solutions at higher levels

logP (LogP of dye) | OD 10 cm [1] | Compound
4.5 | 0.26 | CN=C1C=CC(=C(c2ccc(N(C)C)cc2)c2ccc(N(C)C)cc2)C=C1 [Solvent Violet 8, Solvent Violet 8 (Methyl Violet B Base)]
4 | 0.023 | CCN(CCO)c1ccc(/N=N/c2ccc([N+](=O)[O-])cc2)cc1 [disperse red 1]
 | 0.0067 | Disperse Blue 367
3.5 | 0.014 | CCN(CC)c1ccc(/N=N/c2c(C#N)cc([N+](=O)[O-])cc2C#N)c(NC(C)=O)c1 [Disperse Blue 165]
8.5 | 0.11 | CC1(C)Nc2cccc3c(/N=N/c4ccc(/N=N/c5ccccc5)c5ccccc45)ccc(c23)N1 [solvent black 3]
 | 0.33 | Solvent blue 43

Compound | logP (LogP of dye) | OD 10 cm [1]
COc1cc(/N=N/c2c(Br)cc([N+](=O)[O-])cc2[N+](=O)[O-])c(NC(C)=O)cc1N(CCOC(C)=O)CCOC(C)=O [Disperse Blue 79:1] | 4.5 | 0.048
